{
  "source": "patent US20200316087A1",
  "about": "“NOVEL COMBINATION THERAPY FOR ANXIETY DISORDERS, EPILEPSY, AND PAIN” (priority 2017, published 2020)",
  "key": {"[1]": {"system": "immobility in tail-suspension test", "assay": "Tail-suspension assay", "type": "in vivo", "conditions": "C57Bl/6 mice", "procedure": "Male, C57Bl/6 mice (Envigo, Indianapolis, Ind.) were employed in these experiments. Med Associates Inc. (Fairfax, Vt., USA), apparatus SOF-821 was utilized. The TST was an automated version of published methods in which the tail was secured to a lever on the ceiling of the chamber. The duration of immobility was recorded by a force transducer for a period of 10 min.\nImipramine was dissolved in water."}, "[2]": {"system": "resected human cortical tissue from epileptic patients", "assay": "Human epileptic cerebral cortex slice electrophysiology", "type": "cell-based", "conditions": "30 μM", "procedure": "The tissue was prepared and treated as previously described (Zwart et al., J. Pharmacal. Exp. Ther., 2014, 351:124-133). Slices were maintained at 37° C. and were perfused at 1.0 ml/min first with normal ACSF (NACSF) solution for one hour to see if the tissue was spontaneously active. […] Tissue was then recorded in EACSF with a concentration of 10 μM picrotoxin for 1 hr. Subsequently, tissue was recorded in EACSF with a concentration of 10 μM of picrotoxin with 30 μM KRM-II-81 and recorded for 1 hour. Following the KRM-II-81 addition, tissue was recorded in a washout solution of EACSF and 10 μM Picrotoxin for 1 hr. The concentration of KRM-II-81 was based upon data collected in human cortical slices with perampanel and upon the need to be conservative in concentration estimates to maximize the opportunity to see an effect given limited human tissue opportunities. A second experiment was conducted using […] (50 μM) as an activator instead of picrotoxin.\nRecordings were performed on microelectrode arrays of 60 electrodes as previously described (Zwart et al., J Pharmacol. Exp. Ther., 2014, 351:124-133). LFPs with sharp negative peaks below a threshold set at 3 standard deviations of the signal were marked, and the time of the maximum excursion was recorded as the time of that LFP. Time points were binned at 4 ms. […]"}, "motor performance": {"system": "motor performance", "assay": "Observed motor effects / overt toxicity 4 hr after oral dosing", "type": "in vivo", "conditions": "for Observation (motor effects) / Number with observed motor effects: 4 hr post dosing, mice", "from_the_text": "(§1) This seizure model is utilized to screen for drugs that might […] by other screening approaches. For example, the highly used anticonvulsant leviteracetam was effective in this test but not in the pentylenetetrazole assay. Adult, male mice were subjected to 6 Hz stimulation at 44 mA as originally described by Barton et al. (Epilepsy Res. 2001; 47:217-27) and conducted per protocol of the NTH Anticonvulsant Screening Program (available online from the National Institute of Neurological Disorders and Stroke—6 Hz 44 mA Psychomotor Seizure Model, Mouse). Briefly, a mouse was dosed with KRM-II-81, p.o., and 2 hr later given 6 Hz stimulation for 3 sec delivered through corneal electrodes at 44 mA and observed for the presence or absence of seizure activity. A separate group of mice was dosed with higher doses of KRM-II-81 and observed for potential deficits in motor performance and overt signs of toxicity at 4 hr post dosing."}, "[3]": {"system": "human (α2), or rat (α1, α3, α5, γ2L, β3) GABAA receptor subunits", "assay": "Whole-cell patch-clamp GABA current responses in transfected HEK-293T cells", "type": "cell-based", "conditions": "GABA EC3-5, drug concentration 100 nM", "procedure": "Human […] (HEK-293T) were transiently transfected with full-length cDNAs encoding human (α2), or rat (α1, α3, α5, γ2L, β3) GABAA receptor subunits using calcium phosphate precipitation. Positively transfected cells were isolated by utilizing co-transfection of a plasmid encoding a surface antibody (pHook™-1, Invitrogen). 20-52 hours following transfection, cells were mixed with magnetic beads coated with antigen specific for the pHook antibody, isolated with a magnetic stand, and then plated onto coverslips and used for patch-clamp recordings 18-28 hours later.\nCurrent responses to GABA were recorded in the whole-cell configuration, with cells voltage-clamped at −50 mV. The bath solution contained (in mM): 142 NaCl, 8.1 KCl, 6 MgCl2, 1 CaCl2), and 10 HEPES (4-(2-hydroxyethyl)-1-piperazineethanesulfonic acid) with pH=7.4 and osmolarity adjusted to 295-305 mOsm. The electrode (internal) solution consisted of (in mM); 153 KCl, 1 MgCl2, 5 K-EGTA (ethylene glycol-bis (β-aminoethyl ether N,N,N′N′-tetraacetate)), and 10 HEPES with pH=7.4 and osmolarity adjusted to 295-305 mOsm. […] Currents were recorded with an Axon 200B (Foster City, Calif.) patch clamp amplifier. […] Data were analyzed by two-way ANOVA followed by post-hoc Tukey's multiple comparison test. […]"}, "anticonvulsant efficacy": {"system": "anticonvulsant efficacy", "assay": "ED50 for anticonvulsant efficacy (model not stated)", "type": "in vivo", "conditions": "Rattus norvegicus, ip, rats", "from_the_text": "(§2) (Table 4). Using these unbound drug concentrations, the PI based on drug levels in plasma was 3 and that based upon brain drug levels was 3.8."}, "[4]": {"assay": "Unbound plasma and brain concentrations after i.p. dosing", "type": "in vivo, rats", "conditions": "for Unbound brain concentration / Unbound plasma concentration: male Sprague-Dawley rats, n=3, mean ± S.E.M.", "from_the_text": "as §2"}, "6 Hz-induced seizures": {"system": "6 Hz-induced seizures", "assay": "6 Hz (44 mA) seizure model", "type": "in vivo", "conditions": "mice; for Number protected/number tested: 2 hr post dosing", "from_the_text": "as §1"}},
  "note": "Entries after “also recorded” stand apart in the source; their conditions may differ.",
  "data": [
    {"smiles": "C#Cc1ccc2c(c1)C(c1ccccn1)=NCc1c(-c3cnco3)ncn1-2", "note": "[KRM-II-81, 5-(8-ethynyl-6-(pyridin-2-yl)-4H-benzo[f]imidazo[1,5-a][1,4]diazepin-3-yl)oxazole]", "values": [
      {"measurement": "immobility in tail-suspension test", "setting": "[1]; i.p., 100 mg/kg significantly greater than vehicle, 100 mg/kg", "result": "slight increase in immobility at the higher doses tested; also recorded: not active"},
      {"measurement": "sedation-like effects", "setting": "[1]; higher doses tested", "result": "moderate sedation-like effects"},
      {"measurement": "firing rate", "setting": "[2]; firing stimulated with AP-4 (50 μM), baseline 0.08±0.01", "result": "0.01±0.005", "unit": "Hz"},
      {"measurement": "average firing rate", "setting": "[2]; in presence of 10 μM picrotoxin, baseline 0.05±0.01 Hz", "result": "0.01±0.005", "unit": "Hz"},
      {"measurement": "loss of righting (mice affected)", "setting": "motor performance; 150 mg/kg p.o.", "result": "1/8"},
      {"measurement": "loss of righting (mice affected)", "setting": "motor performance; 200 mg/kg p.o.", "result": "1/8"},
      {"measurement": "more severe tremor (mice affected)", "setting": "motor performance; 200 mg/kg p.o.", "result": "1/8"},
      {"measurement": "Observation (motor effects)", "setting": "motor performance; dose 100 mg/kg, p.o.", "result": "Mild tremor; also recorded: tremors"},
      {"measurement": "Number with observed motor effects", "setting": "motor performance; dose 50, p.o.", "result": "0/8"},
      {"measurement": "Number with observed motor effects", "setting": "motor performance; dose 100, p.o.", "result": "3/8"},
      {"measurement": "Number with observed motor effects", "setting": "motor performance; dose 150, p.o.", "result": "5/8"},
      {"measurement": "Observation (motor effects)", "setting": "motor performance; dose 150, p.o.", "result": "tremor, unable to grasp"},
      {"measurement": "Number with observed motor effects", "setting": "motor performance; dose 200, p.o.", "result": "8/8"},
      {"measurement": "Observation (motor effects)", "setting": "motor performance; dose 200, p.o.", "result": "more severe tremor'; also recorded: loss of righting"},
      {"measurement": "selectivity for α2 and α3 over α1", "setting": "[3]", "result": "selective for α2 and α 3 over α1"},
      {"measurement": "ED50", "setting": "anticonvulsant efficacy", "result": 17.3, "unit": "mg/kg"},
      {"measurement": "Unbound brain concentration", "setting": "[4]; 17.3 mg/kg i.p.", "result": "1.64 ± 0.141", "unit": "µM"},
      {"measurement": "Unbound plasma concentration", "setting": "[4]; 17.3 mg/kg i.p.", "result": "3.29 ± 0.107", "unit": "µM"},
      {"measurement": "Unbound brain concentration", "setting": "[4]; 121 mg/kg i.p.", "result": "6.25 ± 1.652", "unit": "µM"},
      {"measurement": "Unbound plasma concentration", "setting": "[4]; 121 mg/kg i.p.", "result": "10 ± 2.147", "unit": "µM"},
      {"measurement": "121/17.3 Ratio, brain", "setting": "[4]; ratio of unbound brain concentrations at 121 and 17.3 mg/kg i.p.", "result": 3.81},
      {"measurement": "121/17.3 Ratio, plasma", "setting": "[4]; ratio of unbound plasma concentrations at 121 and 17.3 mg/kg i.p.", "result": 3.04},
      {"measurement": "Number protected/number tested", "setting": "6 Hz-induced seizures; dose 10, p.o.", "result": "0/8"},
      {"measurement": "Number protected/number tested", "setting": "6 Hz-induced seizures; dose 25, p.o.", "result": "3/8"},
      {"measurement": "Number protected/number tested", "setting": "6 Hz-induced seizures; dose 50, p.o.", "result": "7/8"},
      {"measurement": "6 Hz Potency (MED)", "setting": "6 Hz-induced seizures; p.o., doses 10-50 mg/kg", "result": 50, "unit": "mg/kg"}
    ]}
  ]
}
